According to publication PMC9077138, “An investigation on 3-acetyl-7-methoxy-coumarin Schiff bases and their Ru(II) metallates with potent antiproliferative activity and enhanced LDH and NO release” (RSC Advances, 2018):
Where two headings read alike, the source gives them in different places.

Key:
S. aureus = assay: In vitro antibacterial assay (zone of inhibition, MIC); type: cell-based, Staphylococcus aureus; conditions: for Minimum inhibitory concentration (MIC); head: IC50 VALUES / Zone of inhibition: S. aureus
Protocol: (§1) The free ligands and their cyclometallated ruthenium(II) carbonyl complexes were screened for their in vitro antimicrobial activity against certain pathogenic bacterial and fungal species at three different concentrations using disc diffusion method.
(§2) Antimicrobial activities of [RuHClCO(PPh3)3], ligands H2L^1–4 and new organometallic Ru(II) complexes (1–4) were evaluated by agar well diffusion method[76] as reported, by taking Staphylococcus aureus, Streptococcus pneumonie, Pseudomonas aeruginosa, Salmonella paratyphi and fungus such as Candida albicans, Trichophyton rubrum, Aspergillus niger, Aspergillus fumigatus and Candida tropicalis. The above said all test organisms were obtained from the MTCC, Chandigarh, India and Microbiological laboratory, Coimbatore, Tamil Nadu, India. The antimicrobial activity of the test compounds was checked with various concentrations (25 μg ml^−1, 50 μg ml^−1 and 100 μg ml^−1) against all the test pathogens. Gentamicin and ketoconazole were used as positive controls to study the antibacterial and antifungal activities respectively. Each experiment was performed in triplicate and the results are represented as average zone of inhibition and minimum inhibitory concentration of all the test pathogens.

S. pneumonie = assay: as above; type: cell-based, Streptococcus pneumonie; conditions: for Minimum inhibitory concentration (MIC); head: IC50 VALUES / Zone of inhibition: S. pneumonie
Protocol: as §1, §2

P. aeruginosa = assay: as above; type: cell-based, Pseudomonas aeruginosa; conditions: for Minimum inhibitory concentration (MIC); head: IC50 VALUES / Zone of inhibition: P. aeruginosa
Protocol: as §1, §2

S. paratyphi = assay: as above; type: cell-based, Salmonella paratyphi
Source text: The free ligands and their cyclometallated ruthenium(II) carbonyl complexes were screened for their in vitro antimicrobial activity against certain pathogenic bacterial and fungal species at three different concentrations using disc diffusion method. […] Tested complexes had better antimicrobial activity than the ligands against all pathogens. This may be explained by Tweedy's chelation theory.[61] Coordination of ligands reduce the polarity of the metal ion essentially by partial sharing of its positive charge with the donor groups within the chelate ring system formed during the coordination and leading to the increase in lipophilic nature of the central metal atom, which favours the effective permeation through the lipid layer of microorganism.[61,62] […] When tested against T. rubrum, the activity of the complexes in the order of 3 > 2 > 1 > 4. In antibacterial studies, the complex 3 was effective against S. aureus followed by complex 2, 1 and 4 and in the case of S. pneumonie the activity of the complexes follows the order of 3 > 1 > 4 > 2. […] When tested against S. paratyphi complex 1 stood out as good followed by the complexes 4, 3 and 2 respectively.
as §2

Aspergillus fumigatus = assay: In vitro antifungal assay (zone of inhibition, MIC); type: cell-based
Protocol: as §1, §2

Aspergillus niger = assay: as above; type: cell-based
Protocol: as §1, §2

Candida tropicalis = assay: as above; type: cell-based
Protocol: as §1, §2

Trichophyton rubrum = assay: as above; type: cell-based
Protocol: as §1, §2

C. albicans = assay: as above; type: cell-based, Candida albicans; conditions: for Minimum inhibitory concentration (MIC); head: IC50 VALUES / Zone of inhibition: C. albicans
Protocol: as §1, §2

[1] = tested on: human breast cancer cell line MCF-7; assay: MTT cytotoxicity assay; type: cell-based; conditions: read-out: IC50 values MCF-7
Source text: (§3) The DNA/protein binding studies, antioxidant and antimicrobial studies had shown that the ligands and ruthenium(II) complexes studied here have therapeutic potentials and were subjected to study their anticancer activity. A number of coumarin derivatives have shown considerable anticancer activity against a number of cell lines. All the 3-acetyl-7-methoxy-coumarin-4(N)-substituted thiosemicarbazone ligands, metal precursor [RuHClCO(PPh3)3] and their new cyclometallated Ru(II) complexes were assessed for their cytotoxicity with two human derived cell lines namely human lung carcinoma (A549) and human breast cancer cells (MCF-7) by using MTT assay. For comparison purpose, cisplatin was used as a positive control under identical conditions.
(§4) Cytotoxic activity of the compounds was tested with human lung cancer cell lines A549, human breast cancer cell lines MCF-7 and human normal keratinocyte cells (HaCaT) by using MTT assay, which was done according to the earlier literature methods[77] and IC50 values obtained from nonlinear regression using GraphPad Prism 5.[78] The LDH release[79] and NO release[80] assays of the compounds was evaluated by the earlier reported methods.

[2] = tested on: human lung carcinoma cancer cell line A549; assay: MTT cytotoxicity assay; type: cell-based; conditions: read-out: IC50 values A549
Source text: as §3, §4

Structure (SMILES)	Minimum inhibitory concentration (MIC); head: IC50 VALUES (S. aureus)	Zone of inhibition (S. aureus; 50 µg/ml)	Zone of inhibition (S. aureus; 100 µg/ml)	Minimum inhibitory concentration (MIC); head: IC50 VALUES (S. pneumonie)	Zone of inhibition (S. pneumonie; 50 µg/ml)	Zone of inhibition (S. pneumonie; 100 µg/ml)	Minimum inhibitory concentration (MIC); head: IC50 VALUES (P. aeruginosa)	Zone of inhibition (P. aeruginosa; 50 µg/ml)	Zone of inhibition (P. aeruginosa; 100 µg/ml)	Zone of inhibition (S. paratyphi; 50 µg/ml)	Zone of inhibition (S. paratyphi; 100 µg/ml)	Minimum inhibitory concentration (MIC); head: IC50 VALUES (Aspergillus fumigatus)	Zone of inhibition (Aspergillus fumigatus; 50 µg/ml)	Zone of inhibition (Aspergillus fumigatus; 100 µg/ml)	Minimum inhibitory concentration (MIC); head: IC50 VALUES (Aspergillus niger)	Zone of inhibition (Aspergillus niger; 50 µg/ml)	Zone of inhibition (Aspergillus niger; 100 µg/ml)	Minimum inhibitory concentration (MIC); head: IC50 VALUES (Candida tropicalis)	Zone of inhibition (Candida tropicalis; 50 µg/ml)	Zone of inhibition (Candida tropicalis; 100 µg/ml)	also measured
COc1ccc2[c]3c(c(=O)oc2c1)C(C)=[N+]1N=C(Nc2ccccc2)[S][Ru-4]31([C]#[O+])([P+](c1ccccc1)(c1ccccc1)c1ccccc1)[P+](c1ccccc1)(c1ccccc1)c1ccccc1 [Complex 4, [Ru(7MAC-ptsc)(CO)(PPh3)2]]	18.25 ± 0.11 µM	12.21±0.42 mm	18.11±0.11 mm	15.89 ± 0.12 µM	12.31±0.48 mm	16.54±0.12 mm	15.66 ± 0.16 µM	12.33±0.53 mm	16.85±0.62 mm	12.31±0.38 mm	17.55±0.54 mm	14.45 ± 0.13 µM	12.36±0.52 mm	18.15±0.45 mm	14.80 ± 0.25 µM	11.55±0.26 mm	17.66±0.13 mm	13.54 ± 0.21 µM	12.43±0.12 mm	17.13±0.57 mm	Minimum inhibitory concentration (MIC); head: IC50 VALUES (Trichophyton rubrum): 15.52 ± 0.27 µM; Zone of inhibition (Trichophyton rubrum; 50 µg/ml): 12.41±0.56 mm; Zone of inhibition (Trichophyton rubrum; 100 µg/ml): 18.42±0.18 mm; Minimum inhibitory concentration (MIC); head: IC50 VALUES (C. albicans): 14.65 ± 0.13 µM; Zone of inhibition (C. albicans; 50 µg/ml): 12.49±0.14 mm; Zone of inhibition (C. albicans; 100 µg/ml): 17.19±0.66 mm; IC50 ([1]; MTT, 48 h): 3.02 ± 0.05 µM; IC50 ([2]; MTT, 48 h): 3.05 ± 0.12 µM
CCNC1=N[N+]2=C(C)c3[c](c4ccc(OC)cc4oc3=O)[Ru-4]2([C]#[O+])([P+](c2ccccc2)(c2ccccc2)c2ccccc2)([P+](c2ccccc2)(c2ccccc2)c2ccccc2)[S]1 [Complex 3, [Ru(7MAC-etsc)(CO)(PPh3)2]]	13.14 ± 0.12 µM	12.04±0.60 mm	17.14±0.12 mm	14.85 ± 0.09 µM	11.11±0.22 mm	17.46±0.41 mm	14.46 ± 0.18 µM	13.23±0.52 mm	17.34±0.45 mm	12.53±0.14 mm	17.44±0.27 mm	14.44 ± 0.27 µM	13.53±0.13 mm	18.31±0.21 mm	14.44 ± 0.21 µM	12.73±0.55 mm	18.43±0.12 mm	13.37 ± 0.16 µM	13.55±0.34 mm	17.91±0.31 mm	Minimum inhibitory concentration (MIC); head: IC50 VALUES (Trichophyton rubrum): 14.97 ± 0.31 µM; Zone of inhibition (Trichophyton rubrum; 50 µg/ml): 13.25±0.52 mm; Zone of inhibition (Trichophyton rubrum; 100 µg/ml): 17.44±0.61 mm; Minimum inhibitory concentration (MIC); head: IC50 VALUES (C. albicans): 13.24 ± 0.16 µM; Zone of inhibition (C. albicans; 50 µg/ml): 12.29±0.15 mm; Zone of inhibition (C. albicans; 100 µg/ml): 17.73±0.21 mm; IC50 ([1]; MTT, 48 h): 2.53 ± 0.1 µM; IC50 ([2]; MTT, 48 h): 2.37 ± 0.04 µM
CNC(=S)NN=C(C)c1cc2ccc(OC)cc2oc1=O [H2L^2, ((1E)-1-(1-(7-methoxy-2-oxo-2H-chromen-3-yl)ethylidene) 4(N)-methylthiosemicarbazone)]	–	–	–	–	–	–	–	–	–	–	–	–	–	–	–	–	–	–	–	–	zone of inhibition at 50 µg/mL (S. aureus; Staphylococcus aureus): 12.1 ± 0.25 mm; zone of inhibition at 100 µg/mL (S. aureus; Staphylococcus aureus): 17.5 ± 0.28 mm; zone of inhibition at 50 µg/mL (S. pneumonie; Streptococcus): 12.1 ± 0.33 mm; zone of inhibition at 100 µg/mL (S. pneumonie; Streptococcus): 17.3 ± 0.41 mm; zone of inhibition at 50 µg/mL (P. aeruginosa; Pseudomonas aeruginosa): 12.6 ± 0.37 mm; zone of inhibition at 100 µg/mL (P. aeruginosa; Pseudomonas aeruginosa): 17.7 ± 0.45 mm; zone of inhibition at 50 µg/mL (S. paratyphi; Salmonella enterica, 50 µg/ml): 13.43 ± 0.12 mm; zone of inhibition at 100 µg/mL (S. paratyphi; Salmonella enterica, 100 µg/ml): 16.2 ± 0.57 mm; zone of inhibition at 50 µg/mL (Aspergillus fumigatus): 11.8 ± 0.41 mm; zone of inhibition at 100 µg/mL (Aspergillus fumigatus): 18.3 ± 0.22 mm; zone of inhibition at 50 µg/mL (Aspergillus niger): 12.4 ± 0.33 mm; zone of inhibition at 100 µg/mL (Aspergillus niger): 16.6 ± 0.21 mm; zone of inhibition at 50 µg/mL (Candida tropicalis): 11.5 ± 0.75 mm; zone of inhibition at 100 µg/mL (Candida tropicalis): 17.1 ± 0.46 mm; zone of inhibition at 50 µg/mL (Trichophyton rubrum): 11.3 ± 0.17 mm; zone of inhibition at 100 µg/mL (Trichophyton rubrum): 17.4 ± 0.51 mm; zone of inhibition at 50 µg/mL (C. albicans; Candida albicans): 13.38 ± 0.12 mm; zone of inhibition at 100 µg/mL (C. albicans; Candida albicans): 18.17 ± 0.15 mm; IC50 ([1]; Homo sapiens, MCF7, 48 h): 12.1 ± 0.32 µM; IC50 ([2]; Homo sapiens, A549, 48 h): 12.1 ± 0.16 µM
